In patent US11504425B2, “Amphiphilic oligodeoxynucleotide conjugates as adjuvant enhancers” (WAYNE STATE UNIVERSITY, priority 2019, dated 2022):

Experiments:
Raw-Blue reporter cells = experiment: Cellular uptake and confocal imaging in Raw-Blue cells; type: cell-based, murine
Description: DC 2.4 cells were cultured with RPMI-1640 supplemented with 10% FBS and 1% P/S; Raw-Blue cells were cultured as previously described. […] After incubation, cells were washed twice with 1×PBS by centrifuge at 800×g for 5 min prior to flow cytometry quantification. To visualize in vitro cellular uptake, DC 2.4 cells or Raw-Blue cells were cultured and incubated under the same experimental conditions and were subjected to confocal imaging by Zeiss LSM 510 microscope. […] Inhibitors: 5 μg/mL Filipin; 50 μM EIPA; 300 mM sucrose were tested.

[1] = test system: TLR7-mediated NF-κB activation in Raw-Blue reporter cells; experiment: Raw-Blue NF-κB/SEAP reporter stimulation with TLR7 ligands; type: cell-based, murine
Description: (§1) HEK-Blue™-mTLR7, mTLR8, hTLR7, hTLR8, and RAW-Blue™ cells were purchased from InvivoGen and were used to evaluate bioactivities of lipo ODNs and TLR 7/8 ligands in vitro. All these cell lines were cultured with DMEM supplemented with 10% FBS, 1% P/S and 100 μg/mL Normocin at 37° C. with 5% CO2. […] After incubating for 24 h, SEAP levels were quantified by developing supernatants with QuantiBlue™ substrate for 1 h and reading absorption at 620 nm, following manufacturer's instructions.
Following subcutaneous injection, lipid-modified oligonucleotides efficiently accumulated in the draining lymph nodes by binding and trafficking with endogenous albumin protein (Liu et al., Nature 507, 519-522, 2014; Yu et al., Pharmaceutical Res. 35: 56, 2018). Inspired by that prior work, the current study was aimed to take advantage of lipid functionalization in other oligonucleotide-based TLR inhibitors to further expand the pool of lipo suppressive ODNs. The therapeutic efficacy of lipid-modified IRS 954 in suppressing TLR7-mediated immune activation and alleviating the severity of SLE was investigated. Imiquimod (IMQ; FIG. 1A) was first used to stimulate TLR7-mediated immune activation in Raw-Blue reporter cells. For the initial experiments, Raw Blue cells-a murine RAW 264.7 macrophage cell line which expresses secreted embryonic alkaline phosphatase (SEAP) under the control of an NF-κB and AP-1, were used. Raw Blue cells express many toll-like receptors, including TLR-7, TLR-8, and TLR-9. The immunosuppressive capability of unmodified or lipo IRS 954 was determined by quantifying the level of TLR7-induced NF-κB activation.

human PBMC = experiment: Cytokine secretion by human PBMC (ELISA); type: cell-based; conditions: 24 h
Description: Whole blood was obtained from the Red Cross, where healthy volunteers had provided informed consent to donate blood. Peripheral blood mononuclear cells (PBMC) were isolated by density gradient centrifugation using Histopaque-1077 (Sigma-Aldrich). The mononuclear cells were washed twice with cold PBS (1×) and resuspended in completed RPMI-1640 supplemented with 10% FBS and 1% penicillin/streptomycin. PBMC were seeded at 2×10^6/ml in 200 μL in a 96-well plate.
Supernatants collected from splenocytes suspension or human PBMC suspension after incubation were separately analyzed for IL-6, IL-12p40, TNF-α, and IFN-α by ELISA following manufacturer's instructions.

human TLR7 (hTLR7) = target: T1, human TLR7 (hTLR7) (Homo sapiens, UniProt Q9NYK1); experiment: HEK hTLR7 reporter cells NF-κB/SEAP; type: cell-based; conditions: IMQ at indicated concentrations + 1 μM ODN, 24 h
T1 construct: host or cells: HEK-Blue-hTLR7 (HEK293)
T1 sequence (Q9NYK1 27-1049): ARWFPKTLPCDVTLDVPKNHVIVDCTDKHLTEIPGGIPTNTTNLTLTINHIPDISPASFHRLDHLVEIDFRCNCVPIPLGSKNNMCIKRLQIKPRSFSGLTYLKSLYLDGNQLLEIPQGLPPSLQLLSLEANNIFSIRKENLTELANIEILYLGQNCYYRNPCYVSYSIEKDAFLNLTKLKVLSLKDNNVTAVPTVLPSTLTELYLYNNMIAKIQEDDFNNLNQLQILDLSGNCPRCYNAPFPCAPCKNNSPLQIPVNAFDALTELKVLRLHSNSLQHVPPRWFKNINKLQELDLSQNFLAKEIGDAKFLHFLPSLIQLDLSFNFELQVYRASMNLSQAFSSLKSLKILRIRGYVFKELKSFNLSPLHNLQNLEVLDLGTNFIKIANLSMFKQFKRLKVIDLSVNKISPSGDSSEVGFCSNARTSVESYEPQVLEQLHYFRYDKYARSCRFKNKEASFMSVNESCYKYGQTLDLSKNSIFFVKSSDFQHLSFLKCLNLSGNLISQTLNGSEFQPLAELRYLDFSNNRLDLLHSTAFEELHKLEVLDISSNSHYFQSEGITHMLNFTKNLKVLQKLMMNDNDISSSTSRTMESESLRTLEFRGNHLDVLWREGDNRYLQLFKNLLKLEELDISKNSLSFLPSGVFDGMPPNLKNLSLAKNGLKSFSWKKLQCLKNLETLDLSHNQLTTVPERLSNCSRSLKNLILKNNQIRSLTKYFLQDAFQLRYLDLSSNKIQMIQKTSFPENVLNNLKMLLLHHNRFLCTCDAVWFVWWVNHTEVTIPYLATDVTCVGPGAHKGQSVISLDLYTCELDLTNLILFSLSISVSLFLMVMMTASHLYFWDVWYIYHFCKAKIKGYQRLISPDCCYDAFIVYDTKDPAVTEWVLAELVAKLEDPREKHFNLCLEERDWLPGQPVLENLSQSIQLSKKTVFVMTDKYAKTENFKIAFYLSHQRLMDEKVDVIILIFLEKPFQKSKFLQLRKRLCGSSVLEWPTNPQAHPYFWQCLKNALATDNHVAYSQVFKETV
Description: as §1
HEK293 cells transfected with human TLR7 or 8 were used. The cells were stimulated with IMQ in the presence of several inhibitory oligonucleotides reported in the literature. […] In contrast, all the unmodified ODNs maintained their inhibitory function, reducing the NF-κB secretion to basal levels (FIG. 8A). We then plotted the IMQ dose response curve in human TLR-7 transfected HEK293 cells.

5′-TTTTTTTTTTTTTTTTTTTT-3′ [T20]
colocalization with lysosomes (Raw-Blue reporter cells; 1 μM FAM-labeled ODN, FBS-supplemented and FBS-free, LysoTracker Red): colocalized with lysosomes regardless of the presence of FBS
effect on cellular uptake of FITC-labeled IMDQ (Raw-Blue reporter cells; 2 μM FITC-IMDQ + 1 μM ODN): neither T20 nor lipo T20 increased cellular uptake
lowering of IMQ-induced NF-κB activation ([1]; 2 μM IMQ + 1 μM ODN, 24 h): 2 folds
IMQ-elicited activation with high-dose ODN ([1]; 2 μM IMQ + 5 μM T20, 24 h): significantly enhanced inhibition in IMQ-elicited activation
overall NF-κB stimulation by IMQ, CL075, R848 in the presence of the ODN ([1]; ligands at indicated concentrations + 1 μM ODN, 24 h): suppressive effect on all the TLR ligands tested
IFN-α production (human PBMC; CL264 + ODN): completely abrogated IFN-α production
IL-12 production (human PBMC; TLR8-506 + ODN): able to augment the IL-12 production
IMQ dose response in hTLR7 cells in the presence of the ODN (human TLR7 (hTLR7)): completely abrogated the immune activation by IMQ
